Results from patent US6093732A, “4-hydroxyquinoline-3-carboxamides and hydrazides as antiviral agents” (Pharmacia & Upjohn Company, priority 1998, dated 2000).
Counter-ions that a name gives are not always drawn.

Target: T1, HCMV polymerase (Human cytomegalovirus, UniProt P08546)
T1 construct: made in house; host or cells: recombinant baculovirus-infected SF-9 cells
Assay: HCMV polymerase scintillation proximity assay (SPA), modified version
Type: biochemical
Settings: CMV polymerase; Table 1; modified assay with 4.5 mM DTT, compounds in 100% DMSO; read-out: Antiviral Selective Polymerase IC50 Values, CMV
Method: The HCMV polymerase assay is performed using a scintillation proximity assay (SPA) as described in several references, such as N. D. Cook, et al., Pharmaceutical Manufacturing International, pages 49-53 (1992); K. Takeuchi, Laboratory Practice, September issue (1992); U.S. Pat. No. 4,568,649 (1986); which are incorporated by reference herein. Reactions are performed in 96-well plates. The assay is conducted in 100 μl volume with 5.4 mM HEPES (pH 7.5), 11.7 mM KCl, 4.5 mM MgCl2, 0.36 mg/ml BSA, and 90 nM ^3 H-dTTP. Assays are run with and without CHAPS, (3-[(3-Cholamidopropyl)-dimethylammonio]-1-propane-sulfonate) at a final concentration of 2 mM. HCMV polymerase is diluted in enzyme dilution buffer containing 50% glycerol, 250 mM NaCl, 10 mM HEPES (pH 7.5), 100 μg/ml BSA, and 0.01% sodium azide. The HCMV polymerase, which is expressed in recombinant baculovirus-infected SF-9 cells and purified according to literature procedures, is added at 10% (or 10 μl) of the final reaction volume, i.e., 100 μl. Compounds are diluted in 50% DMSO and 10 μl are added to each well. Control wells contain an equivalent concentration of DMSO. Unless noted otherwise, reactions are initiated via the addition of 6 nM biotinylated poly(dA)-oligo(dT) template/primer to reaction mixtures containing the enzyme, substrate, and compounds of interest. Plates are incubated in a 25° C. or 37° C. H2 O bath and terminated via the addition of 40 μl/reaction of 0.5 M EDTA (pH 8) per well. Reactions are terminated within the time-frame during which substrate incorporation is linear and varied depending upon the enzyme and conditions used, i.e., 30 min. for HCMV polymerase. Ten μl of streptavidin-SPA beads (20 mg/ml in PBS/10% glycerol) are added following termination of the reaction. Plates are incubated 10 min. at 37° C., then equilibrated to room temperature, and counted on a Packard Topcount. Linear regressions are performed and IC50 's are calculated using computer software.
A modified version of the above HCMV polymerase assay is performed as described above, but with the following changes: Compounds are diluted in 100% DMSO until final dilution into assay buffer. In the previous assay, compounds are diluted in 50% DMSO. 4.5 mM dithiotherotol (DTT) is added to the polymerase buffer. […] Other viral polymerase assays are performed using procedures similar to those described above.

T1 sequence (P08546 whole entry): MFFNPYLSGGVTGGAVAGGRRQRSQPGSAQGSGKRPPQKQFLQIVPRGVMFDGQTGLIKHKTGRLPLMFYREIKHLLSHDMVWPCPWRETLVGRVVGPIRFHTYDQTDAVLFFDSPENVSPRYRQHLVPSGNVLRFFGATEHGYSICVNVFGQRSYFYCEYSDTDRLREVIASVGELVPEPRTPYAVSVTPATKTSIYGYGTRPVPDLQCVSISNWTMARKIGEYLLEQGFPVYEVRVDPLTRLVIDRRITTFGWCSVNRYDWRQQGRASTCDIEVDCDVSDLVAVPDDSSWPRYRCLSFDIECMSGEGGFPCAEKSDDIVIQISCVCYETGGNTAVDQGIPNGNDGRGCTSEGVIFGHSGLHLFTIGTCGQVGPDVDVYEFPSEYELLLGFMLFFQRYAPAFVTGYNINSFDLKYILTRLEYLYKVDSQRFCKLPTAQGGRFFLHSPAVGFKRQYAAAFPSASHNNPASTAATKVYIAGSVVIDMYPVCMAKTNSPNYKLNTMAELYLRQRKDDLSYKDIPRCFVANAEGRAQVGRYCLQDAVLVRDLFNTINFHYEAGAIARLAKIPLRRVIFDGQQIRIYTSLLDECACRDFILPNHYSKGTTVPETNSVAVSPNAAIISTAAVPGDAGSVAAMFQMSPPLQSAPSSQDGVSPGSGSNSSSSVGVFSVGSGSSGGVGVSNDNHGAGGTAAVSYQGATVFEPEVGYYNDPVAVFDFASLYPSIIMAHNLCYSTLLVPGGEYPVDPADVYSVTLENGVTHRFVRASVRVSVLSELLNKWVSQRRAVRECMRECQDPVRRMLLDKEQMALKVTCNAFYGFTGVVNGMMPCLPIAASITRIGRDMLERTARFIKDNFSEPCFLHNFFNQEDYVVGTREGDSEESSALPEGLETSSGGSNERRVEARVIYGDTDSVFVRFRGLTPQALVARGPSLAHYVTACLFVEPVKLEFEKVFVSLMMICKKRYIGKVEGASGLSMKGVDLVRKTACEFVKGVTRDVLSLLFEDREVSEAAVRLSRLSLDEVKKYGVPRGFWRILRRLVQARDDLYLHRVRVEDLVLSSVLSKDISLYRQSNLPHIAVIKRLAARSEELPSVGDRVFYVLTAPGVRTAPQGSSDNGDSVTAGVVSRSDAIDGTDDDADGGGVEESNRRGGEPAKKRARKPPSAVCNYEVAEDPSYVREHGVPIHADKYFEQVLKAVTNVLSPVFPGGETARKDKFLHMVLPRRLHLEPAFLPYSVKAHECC

SMILES | IC50
COCCCc1cc(F)c2ncc(C(=O)NCc3ccc(Cl)cc3)c(O)c2c1 [Example 103, N-(4-Chlorobenzyl)-8-fluoro-4-hydroxy-6-(3-methoxypropyl)-3-quinolinecarboxamide] | 2.5 µM
O=C(NCc1ccc(Cl)cc1)c1cnc2c(F)cc(/C=C\CCO)cc2c1O [Example 104, N-(4-Chlorobenzyl)-8-fluoro-4-hydroxy-6-[(Z)-4-hydroxy-1-butenyl]-3-quinolinecarboxamide] | < 0.78 µM
N#CCCCCCc1cc(F)c2ncc(C(=O)NCc3ccc(Cl)cc3)c(O)c2c1 [Example 105, N-(4-Chlorobenzyl)-6-(5-cyanopentyl)-8-fluoro-4-hydroxy-3-quinolinecarboxamide] | 10.4 µM
CN(CCCc1cc(F)c2ncc(C(=O)NCc3ccc(Cl)cc3)c(O)c2c1)Cc1ccccc1 [Example 108, 6-{3-[Benzyl(methyl)amino]propyl}-N-(4-chlorobenzyl)-8-fluoro-4-hydroxy-3-quinolinecarboxamide] | 6.5 µM
O=C(NCc1ccc(Cl)cc1)c1cnc2cc(CCCO)ccc2c1O [Example 111, N-(4-Chlorobenzyl)-4-hydroxy-7-(3-hydroxypropyl)-3-quinoline-carboxamide] | 2.6 µM
CCOC(=O)/C=C/c1cc(F)c2ncc(C(=O)NCc3ccc(Cl)cc3)c(O)c2c1 [Example 112, Ethyl (E)-3-(3-{[(4-chlorobenzyl)amino]carbonyl}-8-fluoro-4-hydroxy-6-quinolinyl)-2-propenoate] | 14 µM
O=C(O)/C=C/c1cc(F)c2ncc(C(=O)NCc3ccc(Cl)cc3)c(O)c2c1 [Example 113, (E)-3-(3-{[(4-Chlorobenzyl)amino]carbonyl}-8-fluoro-4-hydroxy-6-quinolinyl)-2-propenoic acid] | 10.4 µM
O=C(NCc1ccc(Cl)cc1)c1cnc2ccc3[nH]ncc3c2c1O [Example 116] | 16.5 µM
COc1cc(I)cc2c(O)c(C(=O)NCc3ccc(Cl)cc3)cnc12 [Example 117, N-(4-Chlorobenzyl)-4-hydroxy-6-iodo-8-methoxy-3-quinolinecarboxamide] | 8.7 µM
O=C(NCc1ccc(Cl)cc1)c1cnc2c(C(F)(F)F)cc(CCCO)cc2c1O [Example 123, N-(4-Chlorobenzyl)-4-hydroxy-6-(3-hydroxypropyl)-8-(trifluoromethyl)-3-quinolinecarboxamide] | 2.2 µM
CSC/C=C\c1cc(F)c2ncc(C(=O)NCc3ccc(Cl)cc3)c(O)c2c1 [Example 128, N-[(4-Chlorophenyl)methyl]-8-fluoro-4-hydroxy-6-[(1Z)-3-(methylthio)-1-propenyl]-3-quinolinecarboxamide] | 0.46 µM
CCSC/C=C\c1cc(F)c2ncc(C(=O)NCc3ccc(Cl)cc3)c(O)c2c1 [Example 129, N-[(4-Chlorophenyl)methyl]-6-[(1Z)-3-(ethylthio)-1-propenyl]-8-fluoro-4-hydroxy-3-quinolinecarboxamide] | 1 µM
CSCCCc1cc(F)c2ncc(C(=O)NCc3ccc(Cl)cc3)c(O)c2c1 [Example 130, N-[(4-Chlorophenyl)methyl]-8-fluoro-4-hydroxy-6-[3-(methylthio)propyl]-3-quinolinecarboxamide] | 1.1 µM
O=C(NCc1ccc(Cl)cc1)c1c[nH]c2ccc(/C=C\CO)cc2c1=O [Example 135, N-[(4-Chlorophenyl)methyl]-1,4-dihydro-6-[(1Z)-3-hydroxy-1-propenyl]-4-oxo-3-quinolinecarboxamide] | 0.78 µM

Next, values leading:

IC50 | SMILES
5.4 µM | O=C(NCc1ccc(Cl)cc1)c1cnc2c(F)cc(C#CCCCO)cc2c1O [Example 107, N-(4-Chlorobenzyl)-8-fluoro-4-hydroxy-6-(5-hydroxy-1-pentynyl)-3-quinolinecarboxamide]
11 µM | COC(=O)c1cc(F)c2ncc(C(=O)NCc3ccc(Cl)cc3)c(O)c2c1 [Example 109, Methyl 3-{[(4-chlorobenzyl)amino]carbonyl}-8-fluoro-4-hydroxy-6-quinolinecarboxylate]
0.28 µM | O=C(NCc1ccc(Cl)cc1)c1cnc2c(F)cc(CCCO)cc2c1O [Example 110, N-(4-Chlorobenzyl)-8-fluoro-4-hydroxy-6-(3-hydroxypropyl)-3-quinolinecarboxamide]
2.2 µM | O=C(O)CCc1cc(F)c2ncc(C(=O)NCc3ccc(Cl)cc3)c(O)c2c1 [Example 114, 3-(3-{[(4-Chlorobenzyl)amino]carbonyl}-8-fluoro-4-hydroxy-6-quinolinyl)propanoic acid]
6.1 µM | O=C(O)CCC#Cc1cc(F)c2ncc(C(=O)NCc3ccc(Cl)cc3)c(O)c2c1 [Example 115, 5-(3-{[(4-Chlorobenzyl)amino]carbonyl}-8-fluoro-4-hydroxy-6-quinolinyl)-4-pentynoic acid]
15 µM | O=C(NCc1ccc(Cl)cc1)c1cnc2c(C(F)(F)F)cc(C#CCO)cc2c1O [Example 121, N-(4-Chlorobenzyl)-4-hydroxy-6-(3-hydroxy-1-propynyl)-8-(trifluoromethyl)-3-quinolinecarboxamide]
1.8 µM | O=C(NCc1ccc(Cl)cc1)c1cnc2c(OC(F)(F)F)cc(C#CCO)cc2c1O [Example 122, N-(4-Chlorobenzyl)-4-hydroxy-6-(3-hydroxy-1-propynyl)-8-(trifluoromethoxy)-3-quinolinecarboxamide]
19.7 µM | CSCC#Cc1cc(F)c2ncc(C(=O)NCc3ccc(Cl)cc3)c(O)c2c1 [Example 126, N-[(4-Chlorophenyl)methyl]-8-fluoro-4-hydroxy-6-[3-(methylthio)-1-propynyl]-3-quinolinecarboxamide]
23.5 µM | CCSCC#Cc1cc(F)c2ncc(C(=O)NCc3ccc(Cl)cc3)c(O)c2c1 [Example 127, N-[(4-Chlorophenyl)methyl]-6-[3-(ethylthio)-1-propynyl]-8-fluoro-4-hydroxy-3-quinolinecarboxamide]
1.8 µM | O=COCC#Cc1cc(F)c2ncc(C(=O)NCc3ccc(Cl)cc3)c(O)c2c1 [Example 131, 3-(3-{[(4-Chlorobenzyl)amino]carbonyl}-8-fluoro-4-hydroxy-6-quinolinyl)-2-propynyl formate]
0.64 µM | CC(O)CCc1cc(F)c2ncc(C(=O)NCc3ccc(Cl)cc3)c(O)c2c1 (centres unmarked) [Example 132, N-(4-Chlorobenzyl)-8-fluoro-4-hydroxy-6-(3-hydroxybutyl)-3-quinolinecarboxamide]
0.6 µM | O=C(NCc1ccc(Cl)cc1)c1cnc2c(F)cc(/C=C\CO)cc2c1O [Example 137, N-(4-Chlorobenzyl)-8-fluoro-4-hydroxy-6-[(Z)-3-hydroxy-1-propenyl]-3-quinolinecarboxamide]
1.9 µM | O=CCCc1cc(F)c2ncc(C(=O)NCc3ccc(Cl)cc3)c(O)c2c1 [Example 139, N-(4-Chlorobenzyl)-8-fluoro-4-hydroxy-6-(3-oxopropyl)-3-quinolinecarboxamide]
10.1 µM | O=C(NCc1ccc(Cl)cc1)c1cnc2c(F)cc(CO)cc2c1O [Example 141, N-(4-Chlorobenzyl)-8-fluoro-4-hydroxy-6-(hydroxymethyl)-3-quinolinecarboxamide]
3 µM | O=C(NCc1ccc(Cl)cc1)c1cnc2c(F)cc(C#CCF)cc2c1O [Example 143, N-(4-Chlorobenzyl)-8-fluoro-6-(3-fluoro-1-propynyl)-4-hydroxy-3-quinolinecarboxamide]
